Measured values as given in patent US6852863B2, “Metabolites of (3-{[4-tert-butyl-benzyl)-(pyridine-3-sulfonyl)-amino]-methyl}-phenoxy)-acetic acid” (Pfizer Inc., priority 2002, dated 2005).

Assay: Radiolabelled mass balance and metabolic profiles of 14C-parent in Sprague Dawley rats
Type: in vivo
Settings: single 15 mg/kg I.V. dose of 14C-parent
Procedure: To determine the radiolabelled mass balance and metabolic profiles of (3-{[4-tert-butyl-benzyl)-(pyridine-3-sulfonyl)-amino]-methyl}-phenoxy)-acetic acid in urine, feces, bile and plasma of Sprague-Dawley rats after I.V. administration of a single 15 mg/kg dose of ^14C-(3-{[4-tert-butyl-benzyl)-(pyridine-3-sulfonyl)-amino]-methyl}-phenoxy)-acetic acid.
A group of three male and three female jugular-vein cannulated Sprague-Dawley rats (230-240 g) was housed individually in stainless steel metabolic cages designed to collect urine and feces and administered intravenously a single, 15 mg/kg, dose of ^14C-(3-{[4-tert-butyl-benzyl)-(pyridine-3-sulfonyl)-amino]-methyl}-phenoxy)-acetic acid. […]
The radioactivity in urine, bile and plasma was determined by liquid scintillation counting. Aliquots of urine (0.1 g), bile (0.025 g) or plasma (0.025 g) were mixed with 5 ml of Ecolite (+) scintillation cocktail and counted in a Wallac #1409 liquid scintillation counter (Gaithersburg, Md.). Fecal samples at each time point were homogenized with water, and the total weights of the fecal homogenate were recorded. […]
The radioactivity in the dose was established as 100% of the total radioactivity. The radioactivity at each sampling time for urine and feces was defined as the percentage of dose excreted in the respective matrices. […]

For `CC(C)(CO)c1ccc(CN(Cc2cccc(OCC(=O)O)c2)S(=O)(=O)c2cccnc2)cc1` [Metabolite M4, (3-{[[4-(2-hydroxy-1,1-dimethyl-ethyl)-benzyl]-(pyridine-3-sulfonyl)-amino]-methyl}-phenoxy)-acetic acid], which “Percentage of metabolite formed in vivo, females (basis of % not stated)” value (female rats) is on record?
The value was 6.5%.

What about the “Percentage of metabolite formed in vivo, males (basis of % not stated)” value (male rats) of the same molecule?
Its value is 19.7%.
